Test results as given in patent US20130296426A1, “ANALGESIC” (NAGOYA INDUSTRIAL SCIENCE RESEARCH INSTITUTE, priority 2011, published 2013).

Experiments:
Assay type in all cases: in vivo, rat
[1] = tested on: MIA-induced OA rats; assay: von Frey test, single administration to MIA-induced OA rats; conditions: for Recovery rate of 50% reaction threshold value (%): 1 hour after administration of test drug
Protocol: There were conducted the following experiments for testing the analgesic action of the analgesic of the present invention using the osteoarthritis (OA) rats induced by sodium monoiodoacetate (MIA) which were model animals for OA.
A 50% reaction threshold value to the mechanical stimulus of male Wistar rats of six weeks age was measured (the measuring method will be mentioned later) and a normal control group was selected. MIA prepared by saline was administered in a single dose of 0.3 mg/50 μL into right knee joint of the rats except the normal control group while 50 μL of saline was administered into left knee joint whereupon the MIA-induced OA rats were prepared. To the normal control group, 50 μL of saline was administered into the joints of both knees.
(§1) With regard to the male Wistar rats of six weeks age used as experimental animals except the normal control group, their 50% reaction threshold values to the mechanical stimulus (the measuring method will be mentioned later) and body weights were measured after 24 days from the administration of MIA mentioned in (1) and then 4 groups each comprising six rats [a normal control group, an onset control group, a test drug-administered group and a loxoprofen sodium hydrate (LOX)-administered group (a positive control)] were organized.
A test drug solution (0.1 mg/mL) using the compound 4 as a test drug and a LOX suspension (1 mg/mL) were prepared using a phosphate buffered saline (PBS) containing 0.1 vol % of dimethyl sulfoxide (DMSO) and a 0.5 w/v % aqueous solution of carboxymethyl cellulose, respectively.
(§2) Immediately after the grouping (after 24 days from the administration of MIA), a test drug solution was intraperitoneally administered in a single dose of 0.5 mg/kg to a test drug-administered group while, a LOX suspension was orally administered in a single dose of 5 mg/kg to a LOX-administered group. Meanwhile, to the normal control group and the onset control group, PBS containing 0.1 vol % of DMSO was intraperitoneally administered in a single dose.
The four groups of rats of the above (2) were placed in a transparent acrylic cage with a wire-meshed floor and habituated for about three minutes and the 50% reaction threshold values to the mechanical stimulus were measured after 1, 3, 5 and 24 hours from the administration of a test drug.
The measurement was conducted using von Frey filaments (manufactured by North Coast Medical Inc.) in accordance with the methods of Chaplan, et al. (Journal of Neuroscience Methods, vol. 53, no. 1, pages 55 to 63, 1994) and Dixon, et al. (Annual Review of Pharmacology and Toxicology; vol. 20, pages 441 to 462, 1980). […] The case where the rat escaped at the instance of removing the filament was also called positive. When the positive reaction was noted, stimulus was conducted similarly using a filament of one rank weaker while, when no reaction was noted, stimulus was conducted similarly using a filament of one rank stronger and the point when the reaction changed from negative to positive or from positive to negative was called the first two reactions. After that, stimulus was conducted for continuous four times by the same up-down method. A 50% reaction threshold value to the mechanical stimulus was measured using the reaction to the six stimuli in total and then (mean value)±(standard error) for each group was calculated. Incidentally, when stimulus reached by that of 15.0 g without positive reaction or, when positive reaction continued to 0.4 g, then 15.0 g or 0.25 g was adopted as each threshold value, respectively.
The test for significant difference was performed using the test in two groups (Student's t-test or Welch test) or Wilcoxon test between the normal control group and the onset control group, between the onset control group and the test drug-administered group, between the onset control group and the LOX-administered group and between the test drug-administered group and the LOX-administered group. […]

[2] = tested on: MIA-induced OA rats; assay: von Frey test, repeated administration to MIA-induced OA rats; conditions: for Recovery rate of 50% reaction threshold value (%): repeated administration, 1 hour after administration of test drug
Protocol: Selection of the normal control group and preparation of MIA-induced OA rats were conducted in the same manner as in the above 1.(1).
as §1, with “stimulus, weight bearing rate to a MIA-non-administered hind paw” for “stimulus”, “27” for “24”, “four” for “4”, “LOX-administered” for “loxoprofen sodium hydrate (LOX)-administered”
A test drug solution and an LOX suspension were prepared in the same manner as in the above 1.(2).
as §2, with “During eight days from immediately” for “Immediately”, “27 to 34” for “24”, “repeated” for “a single”, “repeatedly.” for “in a single dose.”
In the same manner as in the above 1.(4), the 50% reaction threshold values to the mechanical stimulus were measured after 1, 3, 5 and 24 hour(s) from the final administration of a test drug. Mean value±standard error for each group was calculated and the test for significant difference was done in the same manner as in the above 1.(4).
The analgesic of the present invention was repeatedly administered to the MIA-induced OA rat and a von Frey test was conducted in the same manner as in the above test 1.(4) whereupon each 50% reaction threshold value was measured. With regard to the 50% reaction threshold value after 1 hour from the administration of a test drug, a recovery rate (%) of the 50% reaction threshold value was calculated in the same manner as in the above test 1.(4).

[3] = tested on: MIA-induced OA rats; assay: Weight bearing rate to MIA-non-administered hind paw (dual channel weight averager), repeated administration
Protocol: as §2, with “During eight days from immediately” for “Immediately”, “27 to 34” for “24”, “repeated” for “a single”, “repeatedly.” for “in a single dose.”
One hind paw of a rat where OA was induced by administration of MIA develops a pain symptom. Therefore, a body weight bearing to a painless hind paw to which no MIA was administered increases in a rat for avoiding the application of body weight to the hind paw after administration of MIA. […] Using this weight bearing rate to the MIA-non-administered hind paw as an index, the analgesic action of the analgesic of the present invention was measured.
The weight bearing rate to the MIA-non-administered hind paw was determined by the following formula after measuring the weight distribution to right and left hind paws of a rat using a device for evaluating the analgesic effect for small animals (Incapacitance Tester manufactured by Linton Instrumentation). Mean value±standard error for each group was also calculated and the test for significant difference was carried out in the same manner as in the above 1.(4). […]

[4] = tested on: experimental autoimmune neuritis (EAN) rats; assay: von Frey test in Guillain-Bareé syndrome model (EAN) rats
Protocol: The following experiment for checking the analgesic action of the analgesic of the present invention was conducted using the experimental autoimmune neuritis (EAN) rats which were the model animals for Guillain-Bareé syndrome having an on set of chronic pain.
The 50% reaction threshold value to mechanical stimulus of female Lewis rats of seven weeks age were measured to select a normal control group. Left hind paw of each of the anesthetized rats except the normal control group was immunized by subcutaneous administration of 0.1 mL of an emulsion prepared by equivalent mixing of a 2 mg/mL solution of a peptide derived from bovine P2 protein (SP-26) with an adjuvant complete Freund H37Ra whereupon EAN rats were prepared.
The grouping was conducted and a test drug was administered in the same manner as in (2) and (3) of the Pharmacological Test II.
A von Frey test was carried out in the same manner as in 1.(4) of the above Pharmacological Test I to measure the 50% reaction threshold value to the mechanical stimulus to each group over time. The test for significant difference was conducted and recovery rate (%) of the 50% reaction threshold value was calculated in the same manner as in (4) of the above Pharmacological Test II.

CCCCCCC/C=C/C(=O)OC [Compound 3, Trans-2-decenoic acid methyl ester]
Recovery rate of 50% reaction threshold value (%) ([1]; single dose): 32.4%
Recovery rate of 50% reaction threshold value (%) [2]: 23.3%

CCCCCCC/C=C/C(=O)OCC [Compound 4, Trans-2-decenoic acid ethyl ester]
Recovery rate of 50% reaction threshold value (%) ([1]; single dose): 61.6%
50% reaction threshold value to the mechanical stimulus ([1]; single intraperitoneal dose 0.5 mg/kg, 24 days after MIA, vs onset control group, FIG. 1): significantly high
50% reaction threshold value to the mechanical stimulus ([2]; repeated intraperitoneal 0.5 mg/kg for eight days, after 1 and 3 hour(s) from the final administration, vs onset control group, FIG. 2): significantly high
weight bearing rate to the MIA-non-administered hind paw ([3]; repeated intraperitoneal 0.5 mg/kg for eight days, vs onset control group, FIG. 3): significantly decreased
Recovery rate of 50% reaction threshold value (%) ([4]; 0.25 mg/kg/day intraperitoneal once daily, After 8 days): 100.0^[…] %
Recovery rate of 50% reaction threshold value (%) ([4]; 0.25 mg/kg/day intraperitoneal once daily, After 11 days): 40.1^[…] %
Recovery rate of 50% reaction threshold value (%) ([4]; 0.25 mg/kg/day intraperitoneal once daily, After 25 days): 21.7^[…] %
Recovery rate of 50% reaction threshold value (%) ([4]; 0.25 mg/kg/day intraperitoneal once daily, After 28 days): 24.2^[…] %
Recovery rate of 50% reaction threshold value (%) ([4]; 0.50 mg/kg/day intraperitoneal once daily, After 8 days): 98.5^[…] %
Recovery rate of 50% reaction threshold value (%) ([4]; 0.50 mg/kg/day intraperitoneal once daily, After 11 days): 35.5%
Recovery rate of 50% reaction threshold value (%) ([4]; 0.50 mg/kg/day intraperitoneal once daily, After 25 days): 38.3^[…] %
Recovery rate of 50% reaction threshold value (%) ([4]; 0.50 mg/kg/day intraperitoneal once daily, After 28 days): 38.3^[…] %

CCCCCCC/C=C/C(=O)OCCC [Compound 5, Trans-2-decenoic acid propyl ester]
Recovery rate of 50% reaction threshold value (%) ([1]; single dose): 8.1%

CCCCCCC/C=C/COC(=O)/C=C/CCCCCCC [Compound 16, Trans-2-decenoic acid trans-2-decenyl ester]
Recovery rate of 50% reaction threshold value (%) ([1]; single dose): 39.6%
Recovery rate of 50% reaction threshold value (%) [2]: 61.4%
weight bearing rate to the MIA-non-administered hind paw ([3]; repeated intraperitoneal 0.5 mg/kg/day, FIG. 4): significantly lowered

C=CCCCCCCCCOC(=O)/C=C/CCCCCCC [Compound 17, Trans-2-decenoic acid trans-9-decenyl ester]
Recovery rate of 50% reaction threshold value (%) ([1]; single dose): 19.5%

CCCCCCC/C=C/C(=O)OC1CCCCC1 [Compound 18, Trans-2-decenoic acid cyclohexyl ester]
Recovery rate of 50% reaction threshold value (%) ([1]; single dose): 20.8%
Recovery rate of 50% reaction threshold value (%) [2]: 32.6%

CCCCCC/C=C/CC(=O)OCC [Compound 20, Trans-3-decenoic acid ethyl ester]
Recovery rate of 50% reaction threshold value (%) ([1]; single dose): 17.7%
Recovery rate of 50% reaction threshold value (%) [2]: 66.3%

CC(C(=O)O)c1ccc(CC2CCCC2=O)cc1 (stereo not shown) [LOX, loxoprofen sodium hydrate, reference compound]
suppressive action to hyperalgesia (50% reaction threshold value) ([1]; single oral dose 5 mg/kg, 24 days after MIA, vs onset control group, FIG. 1): no significant suppressive action to hyperalgesia

CCCCCCC/C=C/C(=O)O [trans-2-decenoic acid, reference compound]
suppressive effect for hyperalgesia (50% reaction threshold value before vs after 1 hour from administration) ([1]; single dose, 1 hour after administration): no suppressive effect for hyperalgesia
